Some test systems named below: DMS 114 small cell lung; KM20L2 colon; DMS 273 small cell lung; DLD-1 colon; SNB-78 CNS; MCF7 breast; DU-145 prostate; MDA-MB-435; BT-549 breast; PC-3 prostate; HS 578T breast.
Assay in all cases: DTP human tumour cell line panel, 48 h

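How tested: cells in 96-well plates exposed to compound for 48 hours at five concentrations. GI50: concentration for 50% inhibition of growth. TGI: total growth inhibition.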 Where a SMILES comes first, the peptide text is derived from it. [ ]: non-standard residue; d: D form. The star is where a group is joined. ξ: configuration not given here. X6 = FC(F)(F)c1cc(NC(=S)*)cc(C(F)(F)F)c1; ξF = NC(Cc1ccccc1)C(=O)O Some results are limits rather than exact numbers.

On to `CC1(c2ccc(F)cc2)C(C#N)C(=O)NC(=O)C1C#N` (stereo not given), for which the TGI in the assay with DMS 114 small cell lung, in the assay with KM20L2 colon, with DMS 273 small cell lung and in the assay on DLD-1 colon was > 100 µM in each case.
Regarding `N#CC(c1ccc(Cl)cc1)c1cccc(C(C#N)c2ccc(Cl)cc2)n1` (stereo not given), the TGI in the assay with SNB-78 CNS, in the assay on KM20L2 colon and with DLD-1 colon was > 100 µM each time.
On to `CC(=O)NNc1nc(C)c(C(=O)NNC(=O)C(=O)Nc2c(Cl)cc([N+](=O)[O-])cc2Cl)s1`, for which the TGI with DMS 114 small cell lung is 94.9 µM; in the assay with SNB-78 CNS, > 100 µM; with KM20L2 colon it was > 100 µM; in the assay on DMS 273 small cell lung, > 100 µM.
As for `Cc1nc2ccccc2c(=O)n1-c1ccccc1I`, the TGI in the assay on DMS 114 small cell lung, in the assay with SNB-78 CNS and with DLD-1 colon was > 100 µM throughout.
For `CN/N=C(/Cc1occc(=O)c1O)C(=O)Nc1ccccc1C`, the total growth inhibition concentration (TGI) in the assay with DMS 114 small cell lung, in the assay on SNB-78 CNS and with KM20L2 colon was > 100 µM throughout.
As for `O=CC[C@H]1C(=O)C[C@@H]2CCC[C@@H]21`, the TGI with SNB-78 CNS was > 100 µM.
For `COC(=O)[C@@H](NC(=O)CNC(=O)[C@H]1CCCN1C(=O)C(Cc1ccccc1)NC(=S)Nc1cc(C(F)(F)F)cc(C(F)(F)F)c1)C(C)C` (stereo not given in full) (X6-[ξF][dP]GV-OMe), the GI50 with MCF7 breast was 2.86 µM; in the assay on DU-145 prostate, 4.85 µM; with MDA-MB-435, 2.79 µM; with BT-549 breast, 1.85 µM; in the assay with PC-3 prostate, 2.48 µM; with HS 578T breast, 2.47 µM. In addition, the TGI with MCF7 breast is 11.3 µM; with DU-145 prostate it was 20.8 µM; with MDA-MB-435, 8.12 µM; with BT-549 breast it was 3.78 µM; in the assay on HS 578T breast it was 8.49 µM.
Consider `NC(=O)c1cccc2cn(-c3ccc([C@@H]4CCCNC4)cc3)nc12`, for which the GI50 with MCF7 breast was 6.59 µM; in the assay with DU-145 prostate, 8.97 µM; in the assay with MDA-MB-435, 12.7 µM; with BT-549 breast, 18.8 µM; in the assay on PC-3 prostate, 16.1 µM; with HS 578T breast, 21.5 µM. Also, the TGI is 23.9 µM with MCF7 breast; 21.9 µM with DU-145 prostate; 26.5 µM in the assay on MDA-MB-435; 40.9 µM in the assay on BT-549 breast; > 100 µM in the assay on PC-3 prostate; 76.7 µM with HS 578T breast.
In the case of `COc1cc(CNc2cnc3cc(N)cc(N)c3n2)cc(OC)c1`, the GI50 is 24.5 µM in the assay with MCF7 breast; 41.4 µM in the assay with DU-145 prostate; 21.1 µM with MDA-MB-435; 20.2 µM in the assay with BT-549 breast; 15.1 µM with PC-3 prostate; 17 µM with HS 578T breast. Moreover, the TGI is > 100 µM in the assay on MCF7 breast; > 100 µM in the assay with DU-145 prostate; 39.5 µM in the assay on MDA-MB-435; 51.4 µM in the assay on BT-549 breast; 35.2 µM in the assay with PC-3 prostate; 52 µM in the assay with HS 578T breast.
Take `CO[C@H](C(=O)[C@@H](O)[C@@H](C)O)[C@@H]1Cc2cc3cc(O[C@H]4C[C@@H](O[C@H]5C[C@@H](O)[C@H](O)C(C)O5)[C@H](O)C(C)O4)c(C)c(O)c3c(O)c2C(=O)[C@H]1O[C@H]1C[C@@H](O[C@H]2C[C@@H](O[C@H]3C[C@](C)(O)C(=O)C(C)O3)[C@@H](O)C(C)O2)[C@H](O)C(C)O1` (stereo not given in full): the GI50 with MCF7 breast was 0.0208 µM; in the assay with DU-145 prostate it was 0.127 µM; with MDA-MB-435 it was 0.0646 µM; with BT-549 breast it was 0.0356 µM; in the assay with PC-3 prostate, 0.151 µM; in the assay on HS 578T breast it was 0.0723 µM. The TGI in the assay on MCF7 breast was > 33.2 µM; in the assay with DU-145 prostate, > 33.2 µM; with MDA-MB-435, 0.252 µM; in the assay on BT-549 breast, 0.157 µM; in the assay on PC-3 prostate, 32.2 µM; with HS 578T breast, 8.25 µM.
On to `COc1ccc(-c2nc3sccn3c2/C(N)=N/C(=N)N)cc1OC`, for which the GI50 in the assay with MCF7 breast is 56.9 µM; in the assay on DU-145 prostate it was 52.4 µM; with MDA-MB-435, 33.1 µM; with BT-549 breast, 22.8 µM; in the assay on PC-3 prostate, 34.3 µM; in the assay with HS 578T breast, 35.5 µM. For the same compound, the TGI in the assay on MCF7 breast was > 100 µM; with DU-145 prostate, > 100 µM; in the assay on MDA-MB-435, > 100 µM; in the assay on BT-549 breast, 43.3 µM; in the assay on PC-3 prostate it was > 100 µM; in the assay on HS 578T breast, > 100 µM.
Consider `Cc1ccc(C(=O)/C(=C/c2ccc([N+](=O)[O-])cc2)SCc2ccc(Cl)cc2)cc1`, for which the GI50 with MCF7 breast is 0.375 µM; in the assay on DU-145 prostate, 5.33 µM; with MDA-MB-435 it was 1.86 µM; in the assay on BT-549 breast, 1.93 µM; in the assay with PC-3 prostate, 1.12 µM; in the assay with HS 578T breast it was 2.14 µM. The TGI was 3.08 µM with MCF7 breast; > 100 µM with DU-145 prostate; 4.3 µM in the assay on MDA-MB-435; 4.09 µM in the assay on BT-549 breast; 3.49 µM in the assay with PC-3 prostate; 6.96 µM in the assay with HS 578T breast.
Take `O=C(Nc1ccccc1)NS(=O)(=O)c1ccc(-n2nc3c(c2-c2cccs2)Cc2ccccc2-3)cc1`: the GI50 in the assay on MCF7 breast was 13.4 µM; in the assay on DU-145 prostate, 28.6 µM; with MDA-MB-435, 22.1 µM; in the assay with BT-549 breast it was 24.1 µM; with PC-3 prostate, 10.4 µM; in the assay on HS 578T breast it was 16.8 µM. In addition, the TGI is > 100 µM with MCF7 breast; 96.2 µM in the assay on DU-145 prostate; 58.3 µM in the assay on MDA-MB-435; 67.9 µM in the assay on BT-549 breast; > 100 µM in the assay with PC-3 prostate; 52.5 µM in the assay on HS 578T breast.
As to `COc1cc(-c2nn(-c3ccc(NC(=O)c4ccc(Cl)c(C(F)(F)F)c4)cc3)cc2-c2ccncc2)ccc1Cl`, the GI50 with MCF7 breast was 3.05 µM; with DU-145 prostate, 4.59 µM; with MDA-MB-435 it was 2.41 µM; in the assay on BT-549 breast it was 3.08 µM; in the assay with PC-3 prostate, 3.04 µM; in the assay with HS 578T breast, 1.23 µM. Besides, the TGI is > 100 µM in the assay with MCF7 breast; > 100 µM in the assay on DU-145 prostate; > 100 µM with MDA-MB-435; 32.5 µM in the assay with BT-549 breast; > 100 µM in the assay on PC-3 prostate; 4.03 µM with HS 578T breast.
Take `Cn1cc(C2=C(c3cn(C)c4ncccc34)C(=O)NC2=O)c2ccccc21`: the GI50 in the assay with MCF7 breast was 7.66 µM; in the assay with DU-145 prostate it was 13.1 µM; in the assay with MDA-MB-435 it was 2.2 µM; in the assay with BT-549 breast, 6.97 µM; with PC-3 prostate it was 8.27 µM; in the assay on HS 578T breast, 4.17 µM. The TGI was > 25 µM with MCF7 breast; > 25 µM in the assay on DU-145 prostate; > 25 µM in the assay with MDA-MB-435; 22.2 µM with BT-549 breast; > 25 µM in the assay on PC-3 prostate; > 19.1 µM in the assay with HS 578T breast.

Values taken from PubChem BioAssay (NCI).
